Test results as given in US20240376436A1, “COMPOSITIONS AND METHODS FOR BIASING THE POLARITY OF ORGANOIDS” (STEMCELL TECHNOLOGIES CANADA INC., priority 2021, published 2024).

Key:
[1] = tested on: apical-out organoids formed from human bronchial epithelial cells; experiment: Counting ciliated cells among dissociated apical-out airway organoids; assay type: cell-based; conditions: FIG. 3; for percentage of ciliated cells: first donor, highest concentrations of the titrated inhibitor in the organoid medium
Description: Cells were cultured and dissociated in accordance with Example 1, and seeded into Aggrewell™ 400 plates (STEMCELL Technologies) that were prepared in accordance with Example 2. Aggregates were generated by seeding roughly 1.2×10^5 cells per well (100 cells per microwell) of an Aggrewell™ 400 plate. The cells were seeded in 500 μL of apical-out organoid medium comprising a basal medium and an inhibitor of notch signaling. The AggreWell™ plate was centrifuged for 3 min at 100 g in order to sediment the cells to the bottom of the microwell. The plates were then incubated for 24 h to 144 h at 37° C. and 5% CO2.
(§1) After the aggregates were formed and sufficiently matured in accordance with Example 3, 500 μL of fresh apical-out airway organoid medium was added to each well. The aggregates were then resuspended using a P1000 pipette and each well distributed to two wells of a 24-well plate (prepared as described in Example 2). The aggregates were incubated under non-adherent conditions in apical-out airway organoid medium for up to 15 days. A partial medium change was performed every second day.
Apical-out airway organoids formed in accordance with Example 4 were harvested on day 15, transferred to a 15 ml tube, and centrifuged at 150 g for 5 min. The supernatant was removed, and the organoids were washed once with DMEM. The washed organoids were resuspended in ACCUTASE (STEMCELL Technologies) and were incubated for 15 minutes at room temperature, before being dissociated to single cells by pipetting vigorously with a P1000 pipette. The single-cell suspension was diluted 1:1 with trypan blue and was then loaded to a Hemocytometer where the cells were counted manually. At the time the dissociated cells are counted, the number of ciliated cells can also be determined by visual inspection.
In one experiment, apical-out organoids were formed from two donor samples in apical-out media formulated with different concentrations of an inhibitor of notch signaling and an inhibitor of TGFbeta signaling. […]

[2] = tested on: apical-out organoids generated from passage 6 pulmonary lineage cells; experiment: Imaging of ciliation of apical-out organoids; assay type: cell-based, human; conditions: passage 6 cells; medium comprising an inhibitor of TGFbeta signaling and Y-27632; FIG. 7A
Description: as §1
Fully mature organoids, formed in accordance with Example 4, were imaged using a standard microscope camera. For example, the organoids may be imaged using a Leica DMi8 or an EVOS M500.
Representative images of apical-out organoids generated from passage 6 pulmonary lineage cells from a donor are shown in FIG. 7.

SMILES	percentage of ciliated cells [1]	emergence of ciliated cells ([1]; second donor, lower concentrations in the organoid medium)	ciliation of organoids (representative images) [2]
C[C@H](NC(=O)Cc1cc(F)cc(F)c1)C(=O)N[C@H](C(=O)OC(C)(C)C)c1ccccc1 [DAPT]	decreased percentage of ciliated cells	–	–
Cc1cccc(-c2[nH]ncc2-c2ccnc3ccccc23)n1 [A77-01]	decreased percentage of ciliated cells	detrimental to the emergence of ciliated cells	–
C[C@@H](N)[C@H]1CC[C@H](C(=O)Nc2ccncc2)CC1 [Y-27632]	–	–	patchy ciliation
